Data on five compounds can be found in patent publication US20230286970A1, “NOVEL OXADIAZOLE-BASED SELECTIVE HDAC6 INHIBITORS” (ITALFARMACO S.P.A., priority 2020, published 2023).

Each structure is given as a SMILES string. A value given as a limit tells only on which side of the number the result lay.

In data set [1] the target is HDAC10 (Homo sapiens (Human), UniProt Q969S8). The experiment in a line: Enzymatic screening, HDAC10 inhibition. The format is biochemical. Here is the method: (§1) For each test compound, 100× concentrated DMSO solutions at 8 doses were prepared and then diluted in assay buffer (25 mM Tris-HCl, pH 8, 130 mM NaCl, 0.05% Tween-20, 10% Glycerol) to obtain 5× concentrated solutions in relation to the final concentrations (typical final concentration range—6.4-200000 nM or 0.18-50000 nM, final DMSO content—1%). Then 10 μL solution of each test compound concentration were placed on a 96-well plate in triplicate and 15 μL of 3.33× concentrated enzyme solution in the assay buffer containing 3.33× concentrated BSA (final BSA concentration—2 mg/mL for HDAC4, HDAC5 and HDAC9 or 1 mg/mL for other isoforms) and in the case of HDAC6-3.33× concentrated TCEP (final TCEP concentration—200 μM) were added to each well. After a period of preincubation (incubation times and temperatures vary for different isoforms and are shown in table 1) 25 μL of solution containing the substrate were added. As substrate, FLUOR DE LYS® deacetylase substrate (Enzo Life Sciences, cat: BML-KI104, FdL), FLUOR DE LYS®-Green substrate (Enzo Life Sciences, cat: BML-KI572, FdL_G) or Boc-Lys(Tfa)-AMC (Bachem, cat: 4060676.005, Tfal)—2× concentrated solution in assay buffer were used. Following a reaction period (reaction times and temperatures vary for different isoforms and are reported in Table 1), 50 μL of the development solution consisting of concentrate FLUOR DE LYS® developer I (Enzo Life Sciences, ca: BML-KI105), diluted 200 times in buffer (50 mM Tris-HCl, pH 8, 137 mM NaCl, 2.7 mM KCl, 1 mM MgCl2) plus 2 μM TSA was added and, after 25 minutes at room temperature in the dark, using the Victor 1420 Multilabel Counter Perkin Elmer Wallac instrument, the fluorescence reading was carried out.

The nature of data set [2]: Stability to Phase I metabolism in rat S9 liver fraction. Particulars: after 90 minutes, 37° C.
In data set [3] the test system is α-tubulin acetylation in 697 cell line. The experiment in a line: In vitro α-tubulin acetylation in 697 cell line (ELISA). The class given is cell-based. Particulars: 16 hours, read-out: fold increase @ 1 uM TubAc (ratio of acetylated tubulin and total tubulin towards control). Here is the method: The in vitro α-tubulin acetylation determination was evaluated on B 697 promyelocytic cell line.
The test molecules were diluted from 20 mM stock solution in DMSO with RPMI 10% FCS+0.01% DMSO medium at 20× concentration compared to the final concentration, added to the cells (15×10^6 cells in a total volume of 30 mL in RPMI medium 10% FCS+0.01% DMSO) to obtain the final concentrations of 1000, 333, 111, 37 nM and incubated at 37° C., 5% CO2 for 16 hours.
At the end of the incubation period, 5×10^6 cells were taken from each sample, centrifuged for 5 minutes at 1100 rpm and washed in 0.9% NaCl at 4° C. The resulting pellet was lysed by treating at 4° C. for 30 minutes with 150 μl of Complete Lysis-M buffer containing protease inhibitors (Complete Lysis-M Roche+Complete Tablets, Mini Easypack, cat: 4719956001) and phosphatase inhibitor cocktails (PhosStop Easypack, Roche, cat: 4906837001), then centrifuged 10 minutes at 14,000 rpm (20817×g). 0.3 μg of supernatant (total protein extract) were diluted in 100 μl of 1×PBS and immobilized in Maxisorp F96 NUN-IMMUNO Plate (Nunc MaxiSorp flat-bottom, Nunc, cat: 442404) at room temperature overnight. Plates were washed twice with Wash Buffer (PBS1×+0.005% tween 20) and saturated for 1 hour at room temperature with 300 μL of 1×PBS containing 10% FCS. After washing twice with Wash Buffer, the plates were incubated for two hours at room temperature in the presence of anti-acetylated-α-tubulin antibody (Monoclonal Anti-acetylated-tubulin clone 6-11B-1, mouse ascites fluid, Sigma, cat: T6793), 100 μl/well diluted 1:1000 in 1×PBS containing 10% FCS) or with total anti-α-tubulin antibody (Monoclonal Anti-alpha-tubulin produced in mouse, Sigma, cat: T6074). Following washing of the pates 5 times with Wash Buffer the secondary antibody conjugated with the enzyme HRP (Goat anti-Mouse IgG, IgM, IgA (H+L), Thermo Fisher Scientific, cat: A10668), diluted 1:1000 in 1×PBS+10% FBS was added at the volume of 100 μl/well.
After washing 4 times, 100 μl/well of TMB substrate kit was added for 10 minutes at room temperature in the dark. The reaction was stopped by adding 50 μl of 2N H2SO4. The plates were read at Multiskan Spectrum spectrophotometer at a wavelength of 450 nm.
The degree of acetylation was calculated by dividing the absorbance obtained for acetylated α-tubulin by the absorbance of total tubulin.
The results of tubulin acetylation, expressed as fold increase of ratio of acetylated α-tubulin/total α-tubulin, of each sample relative to the control sample (untreated) are summarized in table 6.

Data set [4] addresses HDAC8 (Homo sapiens (Human), UniProt Q9BY41). The experiment in a line: Enzymatic screening, HDAC8 inhibition. The format is biochemical. The procedure:
as §1

The target in data set [5] is recombinant human HDAC6 (Homo sapiens (Human), UniProt Q9UBN7). The experiment in a line: Enzymatic screening, HDAC6 inhibition (fluorogenic FdL_G substrate). The class given is biochemical. The procedure, abridged: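 Enzyme was preincubated with compound (8 doses, triplicate, 1% DMSO) in 25 mM Tris-HCl pH 8, 130 mM NaCl, 0.05% Tween-20, 10% glycerol, with BSA. A FLUOR DE LYS-Green substrate was then added, and fluorescence was read after developer plus 2 μM TSA.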

The target in data set [6] is HDAC7 (Homo sapiens (Human), UniProt Q8WUI4). Briefly: Enzymatic screening, HDAC7 inhibition. The class given is biochemical. Here is the method: as §1
The target of data set [7] is HDAC4 (Homo sapiens (Human), UniProt P56524). The experiment in a line: Enzymatic screening, HDAC4 inhibition. The class given is biochemical. The procedure: as §1
Data set [8] addresses HDAC2 (Homo sapiens (Human), UniProt Q92769). The experiment in a line: Enzymatic screening, HDAC2 inhibition. The format is biochemical. The procedure:
as §1

Data set [9] addresses HDAC3 (Homo sapiens (Human), UniProt O15379). Briefly: Enzymatic screening, HDAC3 inhibition. The format is biochemical. The procedure:
as §1

Data set [10] in a line: Stability to Phase I metabolism in human S9 liver fraction. Particulars: after 90 minutes, 37° C.
The target of data set [11] is HDAC11 (Homo sapiens (Human), UniProt Q96DB2). The experiment in a line: Enzymatic screening, HDAC11 inhibition. The format is biochemical. The procedure:
as §1

The nature of data set [12]: Stability in rat plasma. Particulars: after 4 hours, 37° C.
Description: In order to evaluate the stability to circulating enzymes, test compounds were incubated in human and rat plasma at 37° C. in a thermostated oscillating bath. Each test compound was incubated at μM concentration (50 μM when the samples were analysed by UV/HPLC, 1 or 2 μM when the samples were analysed by LC-MS/MS) for 0, 15, 30 minutes and 1, 2 and 4 hours. The reaction was stopped placing samples on ice bath and adding acidified acetonitrile. After centrifugation (10 minutes at 14000 rpm) an aliquot of the supernatant was diluted with water, filtered with 0.45 μm regenerated cellulose syringe filters and injected in HPLC-UV or in LC-MS/MS. The percentage of the remaining amount at the various incubation times with respect to the initial amount were calculated. The half-life in plasma was also calculated.
Data set [13] in a line: Stability in human plasma. The note with it: after 4 hours, 37° C.
For data set [14], the target named is HDAC5 (Homo sapiens (Human), UniProt Q9UQL6). The experiment in a line: Enzymatic screening, HDAC5 inhibition. The class given is biochemical. Here is the method: as §1
The target of data set [15] is recombinant human HDAC1 (Homo sapiens (Human), UniProt Q13547). Briefly: Enzymatic screening, HDAC1 inhibition (fluorogenic FdL_G substrate). The format is biochemical. Summed up: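 Recombinant human HDAC1 inhibition was measured fluorometrically using the FLUOR DE LYS-Green (FdL_G) substrate. Compounds at 8 doses (1% DMSO final) in Tris-HCl pH 8 buffer with NaCl, Tween-20 and glycerol were preincubated in triplicate with enzyme and 1 mg/mL BSA, then given substrate. Developer I plus 2 μM TSA was added, and fluorescence read after 25 minutes in the dark.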

Data set [16] has as its target HDAC9 (Homo sapiens (Human), UniProt Q9UKV0). The experiment in a line: Enzymatic screening, HDAC9 inhibition. The class given is biochemical. Here is the method: as §1

Chain of recombinant human HDAC1 (Q13547 whole entry): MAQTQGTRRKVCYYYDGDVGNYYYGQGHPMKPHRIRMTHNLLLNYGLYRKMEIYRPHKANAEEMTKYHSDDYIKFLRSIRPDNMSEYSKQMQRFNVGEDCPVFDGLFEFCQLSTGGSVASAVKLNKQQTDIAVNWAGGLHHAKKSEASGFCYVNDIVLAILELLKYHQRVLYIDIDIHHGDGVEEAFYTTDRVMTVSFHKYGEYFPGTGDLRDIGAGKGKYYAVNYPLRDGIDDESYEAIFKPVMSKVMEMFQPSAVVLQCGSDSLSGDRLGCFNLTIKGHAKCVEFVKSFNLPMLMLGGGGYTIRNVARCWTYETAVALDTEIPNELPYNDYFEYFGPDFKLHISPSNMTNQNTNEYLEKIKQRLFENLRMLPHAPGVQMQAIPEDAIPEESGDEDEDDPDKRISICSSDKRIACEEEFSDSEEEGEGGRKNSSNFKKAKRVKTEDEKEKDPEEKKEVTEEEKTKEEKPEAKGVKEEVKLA
Chain of HDAC11 (Q96DB2 whole entry): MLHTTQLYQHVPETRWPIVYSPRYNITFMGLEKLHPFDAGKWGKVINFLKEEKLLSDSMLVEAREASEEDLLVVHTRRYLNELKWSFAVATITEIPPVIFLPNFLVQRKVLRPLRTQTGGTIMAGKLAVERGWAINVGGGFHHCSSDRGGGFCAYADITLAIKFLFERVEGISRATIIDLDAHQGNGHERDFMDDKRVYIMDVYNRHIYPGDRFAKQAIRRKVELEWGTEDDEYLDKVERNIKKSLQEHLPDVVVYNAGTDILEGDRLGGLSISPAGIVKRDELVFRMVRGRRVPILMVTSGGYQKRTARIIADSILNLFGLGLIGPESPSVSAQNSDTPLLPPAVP
Chain of HDAC2 (Q92769 whole entry): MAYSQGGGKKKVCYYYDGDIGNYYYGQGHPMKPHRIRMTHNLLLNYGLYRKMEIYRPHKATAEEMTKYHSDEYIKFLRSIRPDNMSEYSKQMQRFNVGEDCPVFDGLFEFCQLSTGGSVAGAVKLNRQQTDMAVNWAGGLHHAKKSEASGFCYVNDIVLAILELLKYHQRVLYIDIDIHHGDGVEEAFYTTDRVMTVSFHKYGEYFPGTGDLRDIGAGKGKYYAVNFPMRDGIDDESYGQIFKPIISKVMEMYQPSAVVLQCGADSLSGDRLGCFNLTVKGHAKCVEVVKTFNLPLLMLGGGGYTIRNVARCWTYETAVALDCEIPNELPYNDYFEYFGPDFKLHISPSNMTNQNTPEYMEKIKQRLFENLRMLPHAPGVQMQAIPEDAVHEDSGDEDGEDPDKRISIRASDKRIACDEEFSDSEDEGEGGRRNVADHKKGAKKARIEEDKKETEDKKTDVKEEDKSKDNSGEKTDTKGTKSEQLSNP
Chain of HDAC8 (Q9BY41 whole entry): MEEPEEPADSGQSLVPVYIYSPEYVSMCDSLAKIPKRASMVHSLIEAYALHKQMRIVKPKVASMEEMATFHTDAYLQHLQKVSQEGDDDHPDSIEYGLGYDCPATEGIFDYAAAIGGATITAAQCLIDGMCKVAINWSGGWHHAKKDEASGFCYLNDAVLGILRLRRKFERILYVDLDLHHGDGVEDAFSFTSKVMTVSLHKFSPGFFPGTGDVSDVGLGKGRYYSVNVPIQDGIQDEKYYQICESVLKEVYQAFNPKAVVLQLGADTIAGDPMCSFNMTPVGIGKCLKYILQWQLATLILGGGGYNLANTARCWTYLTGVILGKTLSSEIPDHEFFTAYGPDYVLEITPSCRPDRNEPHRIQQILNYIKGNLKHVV
Chain of recombinant human HDAC6 (Q9UBN7 whole entry): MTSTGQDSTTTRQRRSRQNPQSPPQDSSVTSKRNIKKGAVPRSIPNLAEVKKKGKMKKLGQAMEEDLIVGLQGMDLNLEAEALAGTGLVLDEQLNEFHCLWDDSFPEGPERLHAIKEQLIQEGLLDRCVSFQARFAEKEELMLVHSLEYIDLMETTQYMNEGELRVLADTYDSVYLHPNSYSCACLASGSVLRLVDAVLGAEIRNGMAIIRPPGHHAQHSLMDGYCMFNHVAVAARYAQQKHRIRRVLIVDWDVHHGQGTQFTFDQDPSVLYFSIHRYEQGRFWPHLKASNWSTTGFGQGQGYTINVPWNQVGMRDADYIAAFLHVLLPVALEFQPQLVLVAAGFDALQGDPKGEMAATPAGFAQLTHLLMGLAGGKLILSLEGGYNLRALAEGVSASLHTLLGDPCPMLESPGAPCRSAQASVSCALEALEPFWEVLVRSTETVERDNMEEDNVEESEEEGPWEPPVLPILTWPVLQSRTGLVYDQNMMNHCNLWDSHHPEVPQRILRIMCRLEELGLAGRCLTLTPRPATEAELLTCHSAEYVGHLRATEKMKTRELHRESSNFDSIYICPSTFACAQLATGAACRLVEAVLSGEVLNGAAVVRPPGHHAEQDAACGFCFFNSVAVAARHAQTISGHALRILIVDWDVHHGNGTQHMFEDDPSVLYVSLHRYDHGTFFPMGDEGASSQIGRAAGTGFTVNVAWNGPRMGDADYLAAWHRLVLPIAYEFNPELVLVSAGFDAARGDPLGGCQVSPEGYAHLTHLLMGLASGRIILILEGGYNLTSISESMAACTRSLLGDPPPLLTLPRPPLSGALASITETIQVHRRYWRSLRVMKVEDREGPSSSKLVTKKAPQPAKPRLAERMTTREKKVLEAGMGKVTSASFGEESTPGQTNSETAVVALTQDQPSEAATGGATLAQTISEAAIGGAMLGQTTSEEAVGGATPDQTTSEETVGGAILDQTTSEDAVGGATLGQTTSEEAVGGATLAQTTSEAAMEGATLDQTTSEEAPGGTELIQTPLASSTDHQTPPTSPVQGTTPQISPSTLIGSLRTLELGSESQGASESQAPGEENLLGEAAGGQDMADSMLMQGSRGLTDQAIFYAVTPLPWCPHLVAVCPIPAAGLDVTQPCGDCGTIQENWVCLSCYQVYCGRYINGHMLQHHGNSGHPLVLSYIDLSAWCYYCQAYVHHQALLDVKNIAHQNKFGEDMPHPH
Chain of HDAC7 (Q8WUI4 whole entry): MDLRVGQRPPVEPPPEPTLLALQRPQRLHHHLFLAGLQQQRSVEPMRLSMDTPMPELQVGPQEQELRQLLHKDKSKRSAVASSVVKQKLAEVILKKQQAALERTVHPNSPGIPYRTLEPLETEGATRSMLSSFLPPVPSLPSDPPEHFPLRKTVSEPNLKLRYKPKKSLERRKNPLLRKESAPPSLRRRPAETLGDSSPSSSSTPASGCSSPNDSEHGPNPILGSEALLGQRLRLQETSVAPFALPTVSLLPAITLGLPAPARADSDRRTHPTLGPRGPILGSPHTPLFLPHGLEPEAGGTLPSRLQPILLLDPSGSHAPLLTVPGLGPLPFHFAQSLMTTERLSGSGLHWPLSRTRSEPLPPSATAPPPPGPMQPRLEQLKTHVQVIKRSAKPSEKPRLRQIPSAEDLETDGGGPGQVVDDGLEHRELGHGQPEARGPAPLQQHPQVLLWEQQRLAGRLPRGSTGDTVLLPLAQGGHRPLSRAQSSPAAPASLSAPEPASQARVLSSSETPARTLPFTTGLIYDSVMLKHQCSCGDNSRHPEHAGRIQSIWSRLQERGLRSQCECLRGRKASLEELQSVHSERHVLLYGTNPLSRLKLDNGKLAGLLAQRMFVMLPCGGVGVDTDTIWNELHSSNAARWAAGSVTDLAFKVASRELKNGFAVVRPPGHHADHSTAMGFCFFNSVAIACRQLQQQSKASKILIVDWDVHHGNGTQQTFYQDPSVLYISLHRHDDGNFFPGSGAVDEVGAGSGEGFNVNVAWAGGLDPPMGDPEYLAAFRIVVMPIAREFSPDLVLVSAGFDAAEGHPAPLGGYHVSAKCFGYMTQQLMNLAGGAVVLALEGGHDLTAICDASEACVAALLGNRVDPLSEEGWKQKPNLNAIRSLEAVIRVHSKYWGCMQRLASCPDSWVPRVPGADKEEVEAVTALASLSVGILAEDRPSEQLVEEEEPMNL
Chain of HDAC4 (P56524 whole entry): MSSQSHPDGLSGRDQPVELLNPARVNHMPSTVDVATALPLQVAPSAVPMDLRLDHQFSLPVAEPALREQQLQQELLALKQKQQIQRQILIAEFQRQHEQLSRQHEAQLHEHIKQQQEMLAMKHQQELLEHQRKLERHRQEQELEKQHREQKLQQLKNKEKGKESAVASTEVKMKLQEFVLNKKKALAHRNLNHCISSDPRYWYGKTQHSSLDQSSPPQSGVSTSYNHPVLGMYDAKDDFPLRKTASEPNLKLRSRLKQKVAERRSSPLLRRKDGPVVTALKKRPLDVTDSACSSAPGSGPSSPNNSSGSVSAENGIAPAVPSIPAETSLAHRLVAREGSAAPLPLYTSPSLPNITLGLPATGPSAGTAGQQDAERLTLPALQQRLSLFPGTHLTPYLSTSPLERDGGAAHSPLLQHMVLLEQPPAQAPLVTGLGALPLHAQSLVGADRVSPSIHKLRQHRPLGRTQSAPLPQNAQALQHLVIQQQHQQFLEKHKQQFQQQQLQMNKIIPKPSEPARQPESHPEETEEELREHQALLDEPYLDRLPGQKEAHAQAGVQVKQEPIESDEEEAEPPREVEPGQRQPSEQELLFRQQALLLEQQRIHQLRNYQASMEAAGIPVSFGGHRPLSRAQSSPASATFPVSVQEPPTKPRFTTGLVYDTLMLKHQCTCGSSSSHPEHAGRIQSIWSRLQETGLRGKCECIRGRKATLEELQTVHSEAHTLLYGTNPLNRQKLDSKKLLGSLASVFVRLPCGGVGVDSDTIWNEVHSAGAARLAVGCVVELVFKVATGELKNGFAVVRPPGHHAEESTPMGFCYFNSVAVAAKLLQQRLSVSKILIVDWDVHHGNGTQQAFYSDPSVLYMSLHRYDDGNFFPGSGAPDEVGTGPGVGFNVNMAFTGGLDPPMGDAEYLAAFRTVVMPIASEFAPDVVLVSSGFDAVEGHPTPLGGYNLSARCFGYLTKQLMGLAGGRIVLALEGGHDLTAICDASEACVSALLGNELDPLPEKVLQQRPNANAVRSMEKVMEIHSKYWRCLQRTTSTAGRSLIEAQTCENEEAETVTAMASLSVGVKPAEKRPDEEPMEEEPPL

Consider `Nc1ccc(-c2cnn(Cc3ccc(-c4nnc(C(F)F)o4)cn3)c2)cn1` [compound 13, 5-(1-((5-(5-(difluoromethyl)-1,3,4-oxadiazol-2-yl)pyridin-2-yl)methyl)-1H-pyrazol-4-yl)pyridin-2-amine], for which the IC50 in data set [1] is more than 30 µM; in [4] it was 197 µM; in [5], 0.023 µM; in data set [6], more than 30 µM; in data set [7] it was more than 30 µM; in data set [8], more than 30 µM. The IC50 was more than 30 µM in data set [9]; more than 30 µM in [11]; more than 30 µM in data set [14]; more than 200 µM in data set [15]; more than 30 µM in [16]. The “residual percentage in RAT S9 FRACTION” value in data set [2] is recorded as 98%. Moreover, the fold induction at 1 µM in [3] amounted to 16. For the same compound, in data set [10], the “residual percentage in HUMAN S9 FRACTION” value is 97%. The “residual percentage in RAT PLASMA” value in data set [12] came to 75%. Further, the “residual percentage in HUMAN PLASMA” value in data set [13] amounted to 78%.

For `Cn1c(N)nc2cc(-c3cn(Cc4ccc(-c5nnc(C(F)F)o5)cc4)nn3)ccc21` [Compd. 23, 5-(1-(4-(5-(difluoromethyl)-1,3,4-oxadiazol-2-yl)benzyl)-1H-1,2,3-triazol-4-yl)-1-methyl-1H-benzo[d]imidazol-2-amine], the IC50 in data set [1] is more than 30 µM; in data set [4], 0.565 µM; in [5], 0.013 µM; in data set [6] it was more than 30 µM; in data set [7], more than 30 µM; in data set [8], more than 30 µM. Also, the IC50 in data set [9] is 26.5 µM; in [11], more than 30 µM; in data set [14], more than 30 µM; in data set [15], 30.3 µM; in data set [16] it was more than 30 µM. In addition, the “residual percentage in RAT S9 FRACTION” value in [2] came out at 96%. In addition, the fold induction at 1 µM in data set [3] turned out to be 31. Moreover, in data set [10], the “residual percentage in HUMAN S9 FRACTION” value was determined as 88%. The “residual percentage in RAT PLASMA” value in data set [12] stood at 92%. Besides, the “residual percentage in HUMAN PLASMA” value in data set [13] came to 88%.

For the compound `FC(F)c1nnc(-c2ccc(Cn3cc(-c4ccc(NC5=NCCN5)cc4)nn3)cc2)o1` [compound 10, N-(4-(1-(4-(5-(difluoromethyl)-1,3,4-oxadiazol-2-yl)benzyl)-1H-1,2,3-triazol-4-yl)phenyl)-4,5-dihydro-1H-imidazol-2-amine], the half-maximal inhibitory concentration (IC50) is more than 30 µM in data set [1]; 29.5 µM in [4]; 0.016 µM in [5]; more than 30 µM in data set [6]; more than 30 µM in data set [7]; more than 30 µM in data set [8]. Further, the IC50 in data set [9] was more than 30 µM; in data set [11], more than 30 µM; in [14], more than 30 µM; in data set [15], more than 200 µM; in data set [16] it was more than 30 µM. The “residual percentage in RAT S9 FRACTION” value in data set [2] is given as 95%. For the same compound, the fold induction at 1 µM in data set [3] was 11. For the same compound, in data set [10], the “residual percentage in HUMAN S9 FRACTION” value came out at 95%. In addition, in [12], the “residual percentage in RAT PLASMA” value is recorded as 97%. In addition, in data set [13], the “residual percentage in HUMAN PLASMA” value came to 89%.

For `CCNc1nc2ccc(-c3cn(Cc4ccc(-c5nnc(C(F)F)o5)cn4)nn3)cc2[nH]1` [compound 18, 5-(1-((5-(5-(difluoromethyl)-1,3,4-oxadiazol-2-yl)pyridin-2-yl)methyl)-1H-1,2,3-triazol-4-yl)-N-ethyl-1H-benzo[d]imidazol-2-amine], the IC50 is more than 30 µM in data set [1]; more than 200 µM in [4]; 0.008 µM in data set [5]; more than 30 µM in data set [6]; more than 30 µM in [7]; more than 30 µM in data set [8]. In addition, the IC50 was more than 30 µM in data set [9]; more than 30 µM in data set [11]; more than 30 µM in data set [14]; more than 200 µM in data set [15]; more than 30 µM in data set [16]. Besides, the “residual percentage in RAT S9 FRACTION” value in data set [2] turned out to be 91%. In data set [3], the fold induction at 1 µM is 11. Besides, in data set [10], the “residual percentage in HUMAN S9 FRACTION” value is reported as 82%. Moreover, the “residual percentage in RAT PLASMA” value in [12] is reported as 69%. For the same compound, the “residual percentage in HUMAN PLASMA” value in [13] is listed as 84%.

As for `Nc1nc2cc(-c3cn(Cc4ccc(-c5nnc(C(F)F)o5)cc4)nn3)ccc2[nH]1` [Compd. 8, 5-(1-(4-(5-(difluoromethyl)-1,3,4-oxadiazol-2-yl)benzyl)-1H-1,2,3-triazol-4-yl)-1H-benzo[d]imidazol-2-amine], the IC50 in data set [1] was more than 30 µM; in data set [4] it was more than 200 µM; in data set [5], 0.014 µM; in data set [6] it was more than 30 µM; in data set [7], more than 30 µM; in data set [8], more than 30 µM. The IC50 is more than 30 µM in data set [9]; more than 30 µM in [11]; more than 30 µM in data set [14]; more than 200 µM in data set [15]; more than 30 µM in data set [16]. For the same compound, the “residual percentage in RAT S9 FRACTION” value in data set [2] is recorded as 94%. For the same compound, the fold induction at 1 µM in data set [3] stood at 10. Moreover, in data set [10], the “residual percentage in HUMAN S9 FRACTION” value is 95%. For the same compound, the “residual percentage in RAT PLASMA” value in data set [12] is listed as 76%. Further, in [13], the “residual percentage in HUMAN PLASMA” value was 99%.
